# In PubChem BioAssay AID1963838 (Molecular Pharmacology Branch, DTP, NCI, 2024):
# Test system: 855422-203-R-J1-PDC complex spheroid viability
# Experiment: Anticancer human tumor 855422-203-R-J1-PDC patient-derived bladder carcinoma cell line growth inhibition [POLQ]
# Conditions: for IC50: curve of first compound; for viability, T/C: stronger effect = lower value
# Method: Multicellular complex tumor spheroid response to Polymerase (POL) inhibitors (novobiocin, ART-558, RP6685) in combination with a variety of drugs and investigational agents in selected tumor cell lines
# The POL inhibitors (novobiocin, ART-558, and RP6685) were evaluated both individually and in combination with standard of care and investigational anticancer small molecules within a complex spheroid model of solid tumors. . Complex spheroids include a stromal component modeled by human endothelial cells (HUVEC) and fibroblasts modeled by human mesenchymal stem cells (MSCs). The concentration ranges selected for each drug and investigational agent were based upon clinically achievable concentrations if the clinical Cmax of the agent was known.
# Compounds. The drugs and investigational agents: novobiocin (NSC847541), ART-558 (NSC835418), RP-6685 (NSC848927), peposertib (NSC802822), ceralasertib (NSC780249), elimusertib (NSC800525), camonsertib (NSC841442), AZD-1390 (NSC803789), olaparib (NSC753686), talazoparib (NSC767125), rucaparib (NSC756644), sotorasib (NSC818433), MRTX-1133 (NSC836407), SN-38 (NSC673596), topotecan (NSC609699), epotoside (NSC141540), doxorubicin (NSC123127), gemcitabine (NSC613327), 5-fluorouracil (NSC19893), paclitaxel (NSC125973), vemurafenib (NSC761431), MSA-2 (NSC828583), SN-011 (NSC837082), adavosertib (NSC754352), prexasertib (NSC758257), carboplatin (NSC241240) and oxaliplatin (NSC266046), were obtained from the National Cancer Institute (NCI) Developmental Therapeutics Program Chemical Repository (21). The FDA-approved anticancer drug set is available from the Developmental Therapeutics Program at https://dtp.cancer.gov/organization/dscb/obtaining/. […] The stock solutions were prepared in dimethyl sulfoxide (DMSO, Sigma-Aldrich, St. Louis, MO, cat. D2650), except for the platinum compounds which were prepared in saline (Quality Biological, Gaithersburg, MD, cat. 114-055-101), at 800-fold the tested concentration and stored at -70 degrees C prior to their use. All drugs and investigational agents were tested over a range starting from a high concentration at or near the clinical Cmax and decreasing in half-log increments. If the clinical Cmax for an agent had not been determined, the highest concentration tested was 10 microM, except for SN-38, which was tested at a high concentration of 1 microM.
# Cell Culture. All cells were maintained in an incubator at 37 degrees C and 5% CO2 with 95% humidity. The PDC lines were cultured according to standard operating procedures established by the NCI PDMR (https://pdmr.cancer.gov). Table 3 of the manuscript, lists the cell lines along with the number of the three cell types plated to form the mct-spheroids and media for tumor cell growth. After thawing, all PDC lines, except 997537-175-T-J1-PDC and 415267-285-R-J2-PDC, were cultured in Matrigel-coated flasks prepared with a working solution of 1X Ham's F-12 nutrient mix, without supplementation (Thermo Fisher Scientific, cat. 11765054), 100 U/mL penicillin-streptomycin (Thermo Fisher Scientific, cat. 15140122), and 2.5% Matrigel (Corning Inc., Corning, NY, cat. 354248) for the first three passages. The two PDC lines 997537-175-T-J1-PDC and 415267-285-R-J2-PDC were cultured on uncoated flasks. The 857933-349-R-J2-PDC line was cultured in 6C/Colon 1B media containing advanced DMEM/F-12 (Thermo Fisher Scientific, cat. 12634028), 10 mM HEPES (Thermo Fisher Scientific, cat. 15630080), 1X GlutaMAX supplement (Thermo Fisher Scientific, cat. 35050061), 0.1 mg/mL primocin (InvivoGen, San Diego, CA, cat. ant-pm-2), 10% defined fetal bovine serum, heat inactivated (HyClone Laboratories Inc., Logan, UT, cat. SH30070.03HI), 50% L-WRN conditioned media (ATCC, cat. CRL-3276), 1.25 mM N-Acetyl-L-cysteine (Sigma-Aldrich, cat. A9165), 10 mM nicotinamide (Sigma-Aldrich, cat. N0636), 1X B-27 supplement (Thermo Fisher Scientific, cat. 17504044), 1X N-2 supplement (Thermo Fisher Scientific, cat. […]
# [1] = second compound 0.0316 µM, first compound 0.0316 µM
# [2] = second compound 0.0316 µM, first compound 0.1 µM
# [3] = second compound 0.0316 µM, first compound 0.316 µM
# [4] = second compound 0.0316 µM, first compound 1 µM
# [5] = second compound 0.0316 µM, first compound 3.16 µM
# [6] = second compound 0.0316 µM, first compound 10 µM
# [7] = second compound 0.1 µM, first compound 0.0316 µM
# [8] = second compound 0.1 µM, first compound 0.1 µM
# [9] = second compound 0.1 µM, first compound 0.316 µM
# [10] = second compound 0.1 µM, first compound 1 µM
# [11] = second compound 0.1 µM, first compound 3.16 µM
# [12] = second compound 0.1 µM, first compound 10 µM
# [13] = second compound 0.316 µM, first compound 0.0316 µM
# [14] = second compound 0.316 µM, first compound 0.1 µM
# [15] = second compound 0.316 µM, first compound 0.316 µM
# [16] = second compound 0.316 µM, first compound 1 µM
# [17] = second compound 0.316 µM, first compound 3.16 µM
# [18] = second compound 0.316 µM, first compound 10 µM
# [19] = second compound 1 µM, first compound 0.0316 µM
# [20] = second compound 1 µM, first compound 0.1 µM
# [21] = second compound 1 µM, first compound 0.316 µM
# [22] = second compound 1 µM, first compound 1 µM
# [23] = second compound 1 µM, first compound 3.16 µM
# [24] = second compound 1 µM, first compound 10 µM
# [25] = second compound 3.16 µM, first compound 0.0316 µM
# [26] = second compound 3.16 µM, first compound 0.1 µM
# [27] = second compound 3.16 µM, first compound 0.316 µM
# [28] = second compound 3.16 µM, first compound 1 µM
# [29] = second compound 3.16 µM, first compound 3.16 µM
# [30] = second compound 3.16 µM, first compound 10 µM
# [31] = second compound 10 µM, first compound 0.0316 µM
# [32] = second compound 10 µM, first compound 0.1 µM
# [33] = second compound 10 µM, first compound 0.316 µM
# [34] = second compound 10 µM, first compound 1 µM
# [35] = second compound 10 µM, first compound 3.16 µM
# [36] = second compound 10 µM, first compound 10 µM
# 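Further: spheroids exposed to compounds for seven days before readout.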
structure (smiles),measurement,setting,value
COc1cc(C2c3cc4c(cc3C(OC3OC5COC(C)OC5C(O)C3O)C3COC(=O)C23)OCO4)cc(OC)c1O (centres undefined) + COC1C(OC(N)=O)C(O)C(Oc2ccc3c(O)c(NC(=O)c4ccc(O)c(CC=C(C)C)c4)c(=O)oc3c2C)OC1(C)C,IC50,second compound 0.0316 µM,242 nM
same,IC50,second compound 0.1 µM,245 nM
same,IC50,second compound 0.316 µM,227 nM
same,IC50,second compound 1 µM,234 nM
same,IC50,second compound 3.16 µM,210 nM
same,IC50,second compound 10 µM,215 nM
same,"viability, T/C",[1],99.4%
same,"viability, T/C",[2],99.7%
same,"viability, T/C",[3],35.1%
same,"viability, T/C",[4],11.9%
same,"viability, T/C",[5],8.5%
same,"viability, T/C",[6],5.28%
same,"viability, T/C",[7],95.2%
same,"viability, T/C",[8],102%
same,"viability, T/C",[9],36.2%
same,"viability, T/C",[10],12.8%
same,"viability, T/C",[11],7.81%
same,"viability, T/C",[12],4.05%
same,"viability, T/C",[13],99.2%
same,"viability, T/C",[14],103%
same,"viability, T/C",[15],29.4%
same,"viability, T/C",[16],13.3%
same,"viability, T/C",[17],8.9%
same,"viability, T/C",[18],5.06%
same,"viability, T/C",[19],107%
same,"viability, T/C",[20],99.7%
same,"viability, T/C",[21],32.2%
same,"viability, T/C",[22],11.6%
same,"viability, T/C",[23],7.12%
same,"viability, T/C",[24],4.08%
same,"viability, T/C",[25],128%
same,"viability, T/C",[26],85.9%
same,"viability, T/C",[27],29.5%
same,"viability, T/C",[28],12.7%
same,"viability, T/C",[29],8.6%
same,"viability, T/C",[30],4.59%
same,"viability, T/C",[31],111%
same,"viability, T/C",[32],88.8%
same,"viability, T/C",[33],29.9%
same,"viability, T/C",[34],12.9%
same,"viability, T/C",[35],7.13%
same,"viability, T/C",[36],5.19%
O=c1[nH]cc(F)c(=O)[nH]1 + COC1C(OC(N)=O)C(O)C(Oc2ccc3c(O)c(NC(=O)c4ccc(O)c(CC=C(C)C)c4)c(=O)oc3c2C)OC1(C)C,IC50,second compound 0.0316 µM,463 nM
same,IC50,second compound 0.1 µM,403 nM
same,IC50,second compound 0.316 µM,370 nM
same,IC50,second compound 1 µM,489 nM
same,IC50,second compound 3.16 µM,518 nM
same,IC50,second compound 10 µM,431 nM
same,"viability, T/C",[1],101%
same,"viability, T/C",[2],119%
same,"viability, T/C",[3],59.9%
same,"viability, T/C",[4],40.1%
same,"viability, T/C",[5],25.9%
same,"viability, T/C",[6],23.6%
same,"viability, T/C",[7],107%
same,"viability, T/C",[8],107%
same,"viability, T/C",[9],55%
same,"viability, T/C",[10],34.5%
same,"viability, T/C",[11],28%
same,"viability, T/C",[12],22.3%
same,"viability, T/C",[13],107%
same,"viability, T/C",[14],114%
same,"viability, T/C",[15],53.5%
same,"viability, T/C",[16],35.1%
same,"viability, T/C",[17],26.3%
same,"viability, T/C",[18],23.6%
same,"viability, T/C",[19],118%
same,"viability, T/C",[20],100%
same,"viability, T/C",[21],59.2%
same,"viability, T/C",[22],34%
same,"viability, T/C",[23],26.7%
same,"viability, T/C",[24],21.5%
same,"viability, T/C",[25],98.8%
same,"viability, T/C",[26],93.4%
same,"viability, T/C",[27],58.4%
same,"viability, T/C",[28],37.5%
same,"viability, T/C",[29],28.2%
same,"viability, T/C",[30],22%
same,"viability, T/C",[31],117%
same,"viability, T/C",[32],101%
same,"viability, T/C",[33],54.7%
same,"viability, T/C",[34],35.3%
same,"viability, T/C",[35],26.2%
same,"viability, T/C",[36],23.4%
